Measured values as given in ChEMBL document CHEMBL4831512 (J Med Chem, 2021).
Converted amounts (≈) assume the structure as drawn. The source made the active and inactive calls. The calls are words filed in the database; no cut-off is given here.

Legend:
[1] = in vitro; conditions: PAMPA
Description: Permeability of the compound at 500 uM incubated for 16 hrs by PAMPA

[2] = in vivo; conditions: Sprague-Dawley, rat, iv, 1 mg/kg
[3] = test system: Blood; test: tissue or blood; format: functional, tissue-based; conditions: Homo sapiens
[4] = physchem; conditions: buffer, pH 6.8
Description: Equilibrium solubility of compound in buffer at pH 6.8 incubated over night under shaking condition by LC-MS/MS analysis

[5] = in vivo; conditions: Sprague-Dawley, rat, po, 300 mg/kg
[6] = in vivo; conditions: Sprague-Dawley, rat, po, 10 mg/kg
[7] = physchem; conditions: buffer, pH 6.8; remark: listed apart in the source
Description: Solubility of compound at pH 6.8 by shake flask method

[8] = in vivo; conditions: Sprague-Dawley, rat, po, 300 mg/kg; remark: listed apart in the source
[9] = in vivo; conditions: Sprague-Dawley, rat, po, 10 mg/kg; remark: listed apart in the source
[10] = in vivo; conditions: Sprague-Dawley, rat, iv, 1 mg/kg; remark: listed apart in the source
[11] = species: Rattus norvegicus; conditions: dose 10-20 mg/kg, time 2.0 hrs
[12] = species: Rattus norvegicus; conditions: dose 20.0 mg/kg, time 2.0 hrs
[13] = biological target: 3',5'-cyclic-AMP phosphodiesterase 4D (Homo sapiens, UniProt Q08499)
Description: Binding affinity to PDE4d (unknown origin)

[14] = in vivo; conditions: Sprague-Dawley, rat, po, 300 mg/kg; remark: listed apart in the source
[15] = in vivo; conditions: Sprague-Dawley, rat, po, 100 mg/kg
[16] = physchem; conditions: simulated gi fluid
Description: Solubility of compound in fed state simulated intestinal fluid by shake flask method

[17] = in vivo; conditions: Sprague-Dawley, rat, po, 100 mg/kg; remark: listed apart in the source
[18] = in vivo; conditions: Sprague-Dawley, rat, po, 10 mg/kg; remark: listed apart in the source
[19] = physchem; conditions: simulated gi fluid, pH 1
Description: Solubility of compound in stimulated gastric fluid at pH 1 using crystalline form of sample by shake flask method

[20] = in vivo; conditions: Sprague-Dawley, rat, po, 100 mg/kg; remark: listed apart in the source
[21] = biological target: T1, Phosphatidylinositol 4,5-bisphosphate 3-kinase catalytic subunit beta isoform (Homo sapiens, UniProt P42338)
[22] = biological target: T2, Phosphatidylinositol 4,5-bisphosphate 3-kinase catalytic subunit alpha isoform (Homo sapiens, UniProt P42336); format: cell-based, Fibroblast
Description: Inhibition of human PI3Kalpha expressed in rat fibroblast cells assessed as reduction in AKT phosphorylation at Ser473 residue incubated for 1 hr by AlphaScreen assay

[23] = biological target: T3, Phosphatidylinositol 4,5-bisphosphate 3-kinase catalytic subunit delta isoform (Homo sapiens, UniProt O00329)
T3 sequence (O00329 whole entry): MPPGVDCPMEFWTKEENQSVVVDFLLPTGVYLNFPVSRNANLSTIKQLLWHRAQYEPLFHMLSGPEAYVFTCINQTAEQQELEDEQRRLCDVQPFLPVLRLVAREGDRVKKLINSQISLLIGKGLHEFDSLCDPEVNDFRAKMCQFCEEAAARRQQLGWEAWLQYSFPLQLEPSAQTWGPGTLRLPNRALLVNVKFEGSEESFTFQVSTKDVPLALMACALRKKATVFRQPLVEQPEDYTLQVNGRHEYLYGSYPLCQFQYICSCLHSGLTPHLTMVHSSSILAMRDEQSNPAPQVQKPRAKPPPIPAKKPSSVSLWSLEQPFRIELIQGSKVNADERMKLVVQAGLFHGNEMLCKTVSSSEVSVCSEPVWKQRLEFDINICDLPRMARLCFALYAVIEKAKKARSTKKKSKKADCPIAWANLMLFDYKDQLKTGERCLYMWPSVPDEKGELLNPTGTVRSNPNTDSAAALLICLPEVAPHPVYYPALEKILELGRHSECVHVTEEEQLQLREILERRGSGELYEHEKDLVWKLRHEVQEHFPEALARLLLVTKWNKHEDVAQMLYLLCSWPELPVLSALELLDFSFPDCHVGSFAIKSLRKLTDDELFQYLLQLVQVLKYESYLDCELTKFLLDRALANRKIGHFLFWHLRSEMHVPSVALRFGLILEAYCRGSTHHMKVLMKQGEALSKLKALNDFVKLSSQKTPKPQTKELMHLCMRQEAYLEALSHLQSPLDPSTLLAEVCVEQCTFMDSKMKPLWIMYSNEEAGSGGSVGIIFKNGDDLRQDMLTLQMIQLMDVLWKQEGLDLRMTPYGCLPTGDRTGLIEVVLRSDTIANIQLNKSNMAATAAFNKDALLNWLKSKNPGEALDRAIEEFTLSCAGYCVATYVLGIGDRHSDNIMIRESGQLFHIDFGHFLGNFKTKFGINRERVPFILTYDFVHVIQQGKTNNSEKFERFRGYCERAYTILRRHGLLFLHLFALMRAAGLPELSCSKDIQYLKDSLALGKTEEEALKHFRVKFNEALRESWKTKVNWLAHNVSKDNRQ

[24] = biological target: T3, Phosphatidylinositol 4,5-bisphosphate 3-kinase catalytic subunit delta isoform; format: cell-based, Fibroblast
Description: Inhibition of human PI3Kdelta expressed in rat fibroblast cells assessed as reduction in AKT phosphorylation at Ser473 residue incubated for 1 hr by AlphaScreen assay

[25] = biological target: T2, Phosphatidylinositol 4,5-bisphosphate 3-kinase catalytic subunit alpha isoform
[26] = biological target: T1, Phosphatidylinositol 4,5-bisphosphate 3-kinase catalytic subunit beta isoform; format: cell-based, Fibroblast
Description: Inhibition of human PI3Kbeta expressed in rat fibroblast cells assessed as reduction in AKT phosphorylation at Ser473 residue incubated for 1 hr by AlphaScreen assay

T1 sequence (P42338 whole entry, canonical isoform): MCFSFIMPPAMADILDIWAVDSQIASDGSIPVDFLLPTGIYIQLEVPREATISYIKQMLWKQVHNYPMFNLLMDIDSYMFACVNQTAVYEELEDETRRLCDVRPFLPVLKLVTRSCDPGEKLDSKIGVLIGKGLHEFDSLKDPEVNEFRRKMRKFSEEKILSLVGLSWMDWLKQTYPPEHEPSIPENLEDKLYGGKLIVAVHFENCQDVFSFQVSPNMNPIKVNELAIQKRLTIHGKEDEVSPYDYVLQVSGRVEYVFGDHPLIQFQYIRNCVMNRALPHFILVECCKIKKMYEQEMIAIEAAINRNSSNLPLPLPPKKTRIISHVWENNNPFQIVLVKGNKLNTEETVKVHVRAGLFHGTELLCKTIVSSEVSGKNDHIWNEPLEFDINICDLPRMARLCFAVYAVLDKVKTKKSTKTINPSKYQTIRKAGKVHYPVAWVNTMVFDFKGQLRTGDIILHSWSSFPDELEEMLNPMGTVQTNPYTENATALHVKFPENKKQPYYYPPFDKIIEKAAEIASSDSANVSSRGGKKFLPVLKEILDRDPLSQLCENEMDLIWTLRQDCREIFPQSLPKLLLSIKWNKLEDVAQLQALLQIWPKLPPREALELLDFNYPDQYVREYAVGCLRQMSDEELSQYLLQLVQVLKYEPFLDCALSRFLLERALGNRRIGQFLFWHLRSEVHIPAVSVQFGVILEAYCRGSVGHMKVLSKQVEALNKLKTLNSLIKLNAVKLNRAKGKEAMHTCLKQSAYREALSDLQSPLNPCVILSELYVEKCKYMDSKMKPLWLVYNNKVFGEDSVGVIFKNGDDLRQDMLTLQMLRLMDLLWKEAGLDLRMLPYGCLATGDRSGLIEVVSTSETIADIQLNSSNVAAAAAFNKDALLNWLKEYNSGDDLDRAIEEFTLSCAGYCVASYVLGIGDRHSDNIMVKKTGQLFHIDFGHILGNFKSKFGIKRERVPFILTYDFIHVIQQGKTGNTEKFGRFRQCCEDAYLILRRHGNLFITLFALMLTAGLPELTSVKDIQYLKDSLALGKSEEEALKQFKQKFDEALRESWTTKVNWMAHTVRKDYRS
T2 sequence (P42336 whole entry, canonical isoform): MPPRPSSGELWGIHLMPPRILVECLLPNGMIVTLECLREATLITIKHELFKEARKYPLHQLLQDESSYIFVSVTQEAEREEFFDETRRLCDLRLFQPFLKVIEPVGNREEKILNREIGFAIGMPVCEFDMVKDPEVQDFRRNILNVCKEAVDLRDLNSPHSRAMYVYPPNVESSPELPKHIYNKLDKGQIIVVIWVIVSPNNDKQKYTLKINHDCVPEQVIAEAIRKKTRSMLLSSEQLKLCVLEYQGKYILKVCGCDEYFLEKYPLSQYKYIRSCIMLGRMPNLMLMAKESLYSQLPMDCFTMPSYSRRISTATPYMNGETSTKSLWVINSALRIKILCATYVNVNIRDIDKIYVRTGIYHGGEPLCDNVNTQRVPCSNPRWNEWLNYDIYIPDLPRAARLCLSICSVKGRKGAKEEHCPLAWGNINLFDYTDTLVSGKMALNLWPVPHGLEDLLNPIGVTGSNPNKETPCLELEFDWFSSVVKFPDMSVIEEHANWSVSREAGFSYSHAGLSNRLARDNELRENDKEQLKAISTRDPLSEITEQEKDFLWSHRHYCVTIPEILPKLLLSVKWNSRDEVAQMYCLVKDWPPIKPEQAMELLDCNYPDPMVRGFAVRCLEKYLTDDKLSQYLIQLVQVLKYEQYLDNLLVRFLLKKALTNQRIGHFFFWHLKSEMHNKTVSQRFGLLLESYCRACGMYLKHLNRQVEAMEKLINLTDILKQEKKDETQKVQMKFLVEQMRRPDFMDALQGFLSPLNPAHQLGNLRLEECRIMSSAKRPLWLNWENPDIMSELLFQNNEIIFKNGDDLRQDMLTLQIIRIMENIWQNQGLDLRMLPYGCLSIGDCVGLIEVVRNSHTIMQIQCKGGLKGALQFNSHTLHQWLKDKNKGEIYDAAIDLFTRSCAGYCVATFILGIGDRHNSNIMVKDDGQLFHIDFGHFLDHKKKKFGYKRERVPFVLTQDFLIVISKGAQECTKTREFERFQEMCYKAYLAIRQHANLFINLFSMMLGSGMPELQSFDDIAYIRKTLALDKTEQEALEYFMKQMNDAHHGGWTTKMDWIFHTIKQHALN
Chain of 3',5'-cyclic-AMP phosphodiesterase 4D (Q08499 whole entry): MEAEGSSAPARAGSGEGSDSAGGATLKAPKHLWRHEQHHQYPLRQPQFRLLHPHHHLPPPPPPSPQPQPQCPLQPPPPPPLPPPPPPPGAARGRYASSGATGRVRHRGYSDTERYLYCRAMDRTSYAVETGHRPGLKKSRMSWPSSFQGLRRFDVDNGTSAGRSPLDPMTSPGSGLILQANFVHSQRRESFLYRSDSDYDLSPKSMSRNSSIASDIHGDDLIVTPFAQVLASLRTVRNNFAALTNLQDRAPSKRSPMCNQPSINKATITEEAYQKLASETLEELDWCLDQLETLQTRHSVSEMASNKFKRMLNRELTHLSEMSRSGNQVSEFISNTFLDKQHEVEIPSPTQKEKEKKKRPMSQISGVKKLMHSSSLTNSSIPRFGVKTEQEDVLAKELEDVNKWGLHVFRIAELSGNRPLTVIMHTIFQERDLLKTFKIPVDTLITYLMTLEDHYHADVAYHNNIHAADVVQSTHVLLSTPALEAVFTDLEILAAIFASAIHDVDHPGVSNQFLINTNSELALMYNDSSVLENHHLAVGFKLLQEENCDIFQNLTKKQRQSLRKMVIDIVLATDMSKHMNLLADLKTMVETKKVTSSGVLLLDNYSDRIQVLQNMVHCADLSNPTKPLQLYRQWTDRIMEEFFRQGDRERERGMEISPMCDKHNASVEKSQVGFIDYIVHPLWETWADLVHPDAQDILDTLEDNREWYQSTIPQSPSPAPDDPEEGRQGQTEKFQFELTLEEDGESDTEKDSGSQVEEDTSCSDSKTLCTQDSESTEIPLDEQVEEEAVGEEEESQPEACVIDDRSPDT

Cc1ccc(S(=O)(=O)NCC(C)(C)O)cc1-c1cnc(N)c(-c2cnn(C)n2)n1
Fa at 16 h, 500 µM [1]: 60%

Cc1ccc(S(=O)(=O)N[C@H]2CC[C@H](O)CC2)cc1-c1cnc(N)c(C(=O)C2CC2)n1
half-life [2]: 4.6 h

Cc1ncc(-c2cc(-c3cc(S(=O)(=O)NCC(C)(C)O)ccc3C)cnc2N)s1
IC50 [3]: 1810 nM
Fa at 16 h, 500 µM [1]: 43%
solubility thermodynamic [4]: 52 µg/mL (≈ 120 µM)

Cc1ncc(-c2nc(-c3cc(S(=O)(=O)NCC(C)(C)O)ccc3C)cnc2N)s1
Fa at 16 h, 500 µM [1]: 43%

Cc1cc(-c2nc(-c3cc(S(=O)(=O)NCC(C)(C)O)ccc3C)cnc2N)on1
Fa at 16 h, 500 µM [1]: 43%

Cc1ccc(S(=O)(=O)NCC(C)(C)O)cc1-c1cnc(N)c(-n2cncn2)n1
Fa at 16 h, 500 µM [1]: 27%

Cc1ccc(S(=O)(=O)NCC(C)(C)O)cc1-c1cnc(N)c(-c2cnn(C)n2)c1
IC50 [3]: 931 nM
Fa at 16 h, 500 µM [1]: 52%
solubility thermodynamic [4]: 290 µg/mL (≈ 696 µM)

Cc1ncc(-c2nc(-c3cc(S(=O)(=O)N[C@H]4CC[C@H](O)CC4)ccc3C)cnc2N)s1
Fa at 16 h, 500 µM [1]: < 21%

Cc1ncc(-c2nc(-c3cc(S(=O)(=O)NC4CCC(F)(F)CC4)ccc3C)cnc2N)s1
Fa at 16 h, 500 µM [1]: 96%

Cc1ncc(-c2nc(-c3cc(S(=O)(=O)NCCO)ccc3C)cnc2N)s1
Fa at 16 h, 500 µM [1]: 35%

Cc1ccc(S(=O)(=O)NCC(C)(C)O)cc1-c1cnc(N)c(-c2nn(C)nc2C)n1
Fa at 16 h, 500 µM [1]: 81%

Cc1ncc(-c2cc(-c3cc(S(=O)(=O)NCC(C)(C)O)ccc3C)cnc2N)o1
AUC(0-t) at 24 h [5]: 397 µM·h
AUC(0-t) at 24 h [6]: 9.75 µM·h
solubility thermodynamic [7]: 4 µg/mL (≈ 9.6 µM)
bioavailability [8]: 122%
Cmax [9]: 1.53 µM
IC50 [3]: 856 nM
clearance [10]: 30 mL/min/kg
Fa at 16 h, 500 µM [1]: < 27%
inhibition [11]: Dose-Dependent Effect
inhibition [12]: Active
IC50 [13]: 1100 nM
Cmax [14]: 25.2 µM
bioavailability [15]: 94%
solubility thermodynamic [16]: 200 µg/mL (≈ 480 µM)
AUC(0-t) at 24 h [17]: 128 µM·h
bioavailability [18]: 72%
solubility thermodynamic [19]: 532 µg/mL (≈ 1280 µM)
Cmax [20]: 12.2 µM
solubility thermodynamic [4]: 270 µg/mL (≈ 648 µM)

Cc1ccn(-c2nc(-c3cc(S(=O)(=O)NCC(C)(C)O)ccc3C)cnc2N)n1
Fa at 16 h, 500 µM [1]: 96%

Cc1cnn(-c2cc(-c3cc(S(=O)(=O)NCC(C)(C)O)ccc3C)cnc2N)c1
Fa at 16 h, 500 µM [1]: 68%
solubility thermodynamic [4]: 30 µg/mL (≈ 72.2 µM)

Cc1ccc(S(=O)(=O)NCC(C)(C)O)cc1-c1cnc(N)c(-c2cnn(C)c2C)c1
Fa at 16 h, 500 µM [1]: < 35%

Cc1ccc(S(=O)(=O)NCC(C)(C)O)cc1-c1cnc(N)c(-c2cn(C)nc2C)n1
Fa at 16 h, 500 µM [1]: 24%

Cc1ccc(S(=O)(=O)NCC(C)(C)O)cc1-c1cnc(N)c(-n2cncn2)c1
Fa at 16 h, 500 µM [1]: < 27%

Cc1ncc(-c2nc(-c3cc(S(=O)(=O)NCCCO)ccc3C)cnc2N)s1
Fa at 16 h, 500 µM [1]: 27%

CCn1nnc(CCNC(=O)Nc2nc(C)c(-c3ccc(S(C)(=O)=O)c(F)c3)s2)n1
IC50 [21]: 360 nM
IC50 [22]: > 10000 nM
IC50 [3]: 7050 nM
IC50 [23]: 960 nM
IC50 [24]: 4030 nM
IC50 [25]: 3030 nM
IC50 [26]: 2360 nM

Cc1noc(-c2cc(-c3cc(S(=O)(=O)NCC(C)(C)O)ccc3C)cnc2N)n1
AUC(0-t) at 24 h [6]: 17.1 µM·h
solubility thermodynamic [7]: 16 µg/mL (≈ 38.3 µM)
Cmax [9]: 3.29 µM
clearance [10]: 15 mL/min/kg
Fa at 16 h, 500 µM [1]: 81%
solubility thermodynamic [16]: 92 µg/mL (≈ 220 µM)
bioavailability [18]: 66%
solubility thermodynamic [19]: 1020 µg/mL (≈ 2460 µM)
solubility thermodynamic [4]: 160 µg/mL (≈ 383 µM)

Cc1nnc(-c2cc(-c3cc(S(=O)(=O)NCC(C)(C)O)ccc3C)cnc2N)o1
Fa at 16 h, 500 µM [1]: 27%

Cc1ncc(-c2nc(-c3cc(S(=O)(=O)NCCC(C)(C)O)ccc3C)cnc2N)s1
Fa at 16 h, 500 µM [1]: 35%
